Results published in PubChem BioAssay (NCI).
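96-well plates; 48 h exposure; 5 concentrations. Endpoints by linear interpolation between flanking doses. Not reached: highest tested concentration assigned. The concentration for 50% growth inhibition is given as GI50. TGI: concentration producing complete growth inhibition.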

Key:
Experiment in all cases: NCI-60 cell line screen, 48 h
SK-MEL-28 melanoma = test system: SK-MEL-28 melanoma
EKVX NSCLC = test system: EKVX NSCLC
UACC-62 melanoma = test system: UACC-62 melanoma
HCT-15 colon = test system: HCT-15 colon
KM12 colon = test system: KM12 colon
OVCAR-4 ovarian = test system: OVCAR-4 ovarian
MALME-3M melanoma = test system: MALME-3M melanoma
UO-31 renal = test system: UO-31 renal
A498 renal = test system: A498 renal
M14 melanoma = test system: M14 melanoma
T-47D breast = test system: T-47D breast
U251 CNS = test system: U251 CNS
SF-295 CNS = test system: SF-295 CNS
IGROV1 ovarian = test system: IGROV1 ovarian
HS 578T breast = test system: HS 578T breast
HCC-2998 colon = test system: HCC-2998 colon
K-562 leukemia = test system: K-562 leukemia
NCI-H23 lung = test system: NCI-H23 lung
DU-145 prostate = test system: DU-145 prostate
SR leukemia = test system: SR leukemia
NCI-H522 lung = test system: NCI-H522 lung
UACC-257 melanoma = test system: UACC-257 melanoma
RPMI-8226 leukemia = test system: RPMI-8226 leukemia
MDA-MB-231 breast = test system: MDA-MB-231 breast
PC-3 prostate = test system: PC-3 prostate
ACHN renal = test system: ACHN renal
CCRF-CEM leukemia = test system: CCRF-CEM leukemia
SF-268 CNS = test system: SF-268 CNS
SK-OV-3 ovarian = test system: SK-OV-3 ovarian
SF-539 CNS = test system: SF-539 CNS
LOX IMVI melanoma = test system: LOX IMVI melanoma
COLO 205 colon = test system: COLO 205 colon
SW-620 colon = test system: SW-620 colon
A549 NSCLC = test system: A549 NSCLC
MDA-MB-435 = test system: MDA-MB-435
SK-MEL-5 melanoma = test system: SK-MEL-5 melanoma
SNB-75 CNS = test system: SNB-75 CNS
HOP-62 NSCLC = test system: HOP-62 NSCLC
HT29 colon = test system: HT29 colon
SNB-19 CNS = test system: SNB-19 CNS
OVCAR-5 ovarian = test system: OVCAR-5 ovarian
HL-60(TB) leukemia = test system: HL-60(TB) leukemia
MOLT-4 leukemia = test system: MOLT-4 leukemia
RXF 393 renal = test system: RXF 393 renal
HOP-92 NSCLC = test system: HOP-92 NSCLC
TK-10 renal = test system: TK-10 renal
HCT-116 colon = test system: HCT-116 colon
CAKI-1 renal = test system: CAKI-1 renal
OVCAR-8 ovarian = test system: OVCAR-8 ovarian
BT-549 breast = test system: BT-549 breast
MCF7 breast = test system: MCF7 breast
SN12C renal = test system: SN12C renal
NCI-H460 lung = test system: NCI-H460 lung
NCI/ADR-RES ovarian = test system: NCI/ADR-RES ovarian
786-0 renal = test system: 786-0 renal
NCI-H226 lung = test system: NCI-H226 lung
SK-MEL-2 melanoma = test system: SK-MEL-2 melanoma

`Oc1cccc2ccc(-c3nnc(SCc4ccc(O)c5ncccc45)o3)nc12` was tested, and the GI50 (SK-MEL-28 melanoma) was 492 nM, the TGI (SK-MEL-28 melanoma) was greater than 100000 nM and the GI50 (EKVX NSCLC) was 807 nM. For the same compound, the TGI (EKVX NSCLC) was greater than 100000 nM, the GI50 (UACC-62 melanoma) was 467 nM and the TGI (UACC-62 melanoma) was 19700 nM. It also gave a GI50 (HCT-15 colon) of 158 nM, a TGI (HCT-15 colon) greater than 100000 nM and a GI50 (KM12 colon) of 432 nM. For the same compound, the TGI (KM12 colon) was greater than 100000 nM, the GI50 (OVCAR-4 ovarian) was 2000 nM and the TGI (OVCAR-4 ovarian) was greater than 100000 nM. The GI50 (MALME-3M melanoma) was 365 nM, the TGI (MALME-3M melanoma) was 3810 nM and the GI50 (UO-31 renal) was 299 nM. The TGI (UO-31 renal) was 7240 nM, the GI50 (A498 renal) was 1200 nM and the TGI (A498 renal) was 7320 nM. The GI50 (M14 melanoma) was 332 nM, the TGI (M14 melanoma) was 79500 nM and the GI50 (T-47D breast) was 428 nM. For the same compound, the TGI (T-47D breast) was greater than 100000 nM, the GI50 (U251 CNS) was 103 nM and the TGI (U251 CNS) was greater than 100000 nM. The GI50 (SF-295 CNS) was 315 nM, the TGI (SF-295 CNS) was greater than 25700 nM and the GI50 (IGROV1 ovarian) was 457 nM. It also gave a TGI (IGROV1 ovarian) greater than 100000 nM, a GI50 (HS 578T breast) of 181 nM and a GI50 (HCC-2998 colon) of 643 nM. For the same compound, the TGI (HCC-2998 colon) was greater than 100000 nM, the GI50 (K-562 leukemia) was 147 nM and the TGI (K-562 leukemia) was greater than 100000 nM. For the same compound, the GI50 (NCI-H23 lung) was 268 nM, the TGI (NCI-H23 lung) was greater than 100000 nM and the GI50 (DU-145 prostate) was 117 nM. The TGI (DU-145 prostate) was greater than 100000 nM, the GI50 (SR leukemia) was 338 nM and the TGI (SR leukemia) was greater than 100000 nM. The GI50 (NCI-H522 lung) was 440 nM, the TGI (NCI-H522 lung) was 5540 nM and the GI50 (UACC-257 melanoma) was 413 nM. The TGI (UACC-257 melanoma) was 4510 nM, the GI50 (RPMI-8226 leukemia) was 266 nM and the TGI (RPMI-8226 leukemia) was greater than 100000 nM. The GI50 (MDA-MB-231 breast) was 1650 nM, the TGI (MDA-MB-231 breast) was greater than 100000 nM and the GI50 (PC-3 prostate) was 175 nM. The TGI (PC-3 prostate) was greater than 100000 nM, the GI50 (ACHN renal) was 419 nM and the TGI (ACHN renal) was greater than 100000 nM. For the same compound, the GI50 (CCRF-CEM leukemia) was 329 nM, the TGI (CCRF-CEM leukemia) was greater than 100000 nM and the GI50 (SF-268 CNS) was 226 nM. The TGI (SF-268 CNS) was greater than 100000 nM, the GI50 (SK-OV-3 ovarian) was 761 nM and the TGI (SK-OV-3 ovarian) was 5280 nM. The GI50 (SF-539 CNS) was 275 nM, the TGI (SF-539 CNS) was greater than 100000 nM and the GI50 (LOX IMVI melanoma) was 120 nM. For the same compound, the TGI (LOX IMVI melanoma) was greater than 100000 nM, the GI50 (COLO 205 colon) was 1730 nM and the TGI (COLO 205 colon) was 4960 nM. The GI50 (SW-620 colon) was 452 nM, the TGI (SW-620 colon) was greater than 100000 nM and the GI50 (A549 NSCLC) was 204 nM. For the same compound, the TGI (A549 NSCLC) was greater than 100000 nM, the GI50 (MDA-MB-435) was 294 nM and the TGI (MDA-MB-435) was greater than 100000 nM. It also gave a GI50 (SK-MEL-5 melanoma) of 326 nM, a TGI (SK-MEL-5 melanoma) of 1550 nM and a GI50 (SNB-75 CNS) of 177 nM. For the same compound, the TGI (SNB-75 CNS) was greater than 22600 nM, the GI50 (HOP-62 NSCLC) was 369 nM and the TGI (HOP-62 NSCLC) was greater than 40200 nM. For the same compound, the GI50 (HT29 colon) was 4910 nM, the TGI (HT29 colon) was greater than 100000 nM and the GI50 (SNB-19 CNS) was 273 nM. It also gave a TGI (SNB-19 CNS) greater than 100000 nM, a GI50 (OVCAR-5 ovarian) of 2170 nM and a TGI (OVCAR-5 ovarian) greater than 100000 nM. It also gave a GI50 (HL-60(TB) leukemia) of 583 nM, a TGI (HL-60(TB) leukemia) greater than 100000 nM and a GI50 (MOLT-4 leukemia) of 457 nM. It also gave a TGI (MOLT-4 leukemia) greater than 100000 nM, a GI50 (RXF 393 renal) of 350 nM and a TGI (RXF 393 renal) greater than 24500 nM. It also gave a GI50 (HOP-92 NSCLC) of 173 nM, a TGI (HOP-92 NSCLC) of 707 nM and a GI50 (TK-10 renal) of 1990 nM. For the same compound, the TGI (TK-10 renal) was greater than 27100 nM, the GI50 (HCT-116 colon) was 71 nM and the TGI (HCT-116 colon) was greater than 100000 nM. The GI50 (CAKI-1 renal) was 428 nM, the TGI (CAKI-1 renal) was greater than 100000 nM and the GI50 (OVCAR-8 ovarian) was 302 nM. It also gave a TGI (OVCAR-8 ovarian) greater than 100000 nM, a GI50 (BT-549 breast) of 110 nM and a TGI (BT-549 breast) greater than 20700 nM. The GI50 (MCF7 breast) was 367 nM, the TGI (MCF7 breast) was greater than 32400 nM and the GI50 (SN12C renal) was 280 nM. The TGI (SN12C renal) was greater than 100000 nM, the GI50 (NCI-H460 lung) was 39.3 nM and the TGI (NCI-H460 lung) was 11400 nM. It also gave a GI50 (NCI/ADR-RES ovarian) of 696 nM, a TGI (NCI/ADR-RES ovarian) greater than 100000 nM and a GI50 (786-0 renal) of 627 nM. For the same compound, the TGI (786-0 renal) was greater than 100000 nM, the GI50 (NCI-H226 lung) was 2410 nM and the TGI (NCI-H226 lung) was greater than 100000 nM. The GI50 (SK-MEL-2 melanoma) was 513 nM and the TGI (SK-MEL-2 melanoma) was 2700 nM.
